Experiments:
CYP17A1 [1] = settings: actual (literature) activity of training/test set compounds, cited from earlier work; for IC50: unit nM
Solubility in DMSO = assay type: physicochemical
[2] = Toxicity studies on the molecules in Table 2
CYP19A1 = CYP19A1 (Homo sapiens (Human), UniProt P11511); experiment: CYP19A1 inhibition, CYP19/MFC High Throughput Inhibitor Screen Kit, fluorescence; assay type: biochemical; settings: Table 2
Procedure: Test compounds and control inhibitors were prepared as stocks in either Acetonitrile or DMSO from the solid compound. Compounds were serially diluted in ½ log steps in the same solvent. CYP19A1 inhibition experiments were performed using the CYP19/MFC High Throughput Inhibitor Screen Kit (Corning). Test compounds were tested in seven concentrations: […] CYP19A1 reactions were performed in black 96 well-plates (Greiner) according to the manufacturer's instructions. […] Final organic solvent concentrations were either 4% (v/v) acetonitrile or 0.5% (v/v) Dimethyl sulfoxide. The plates were covered with self-adhesive film lids and incubated for 10 minutes at 37° C. Reactions were terminated by the addition of 75 μl Stop Solution (100 mM Tris base in acetonitrile: MilliQ water (80:20). […] The CYP activities for each test compound/positive control inhibitor at each concentration were converted to % of control activity (CA). The LC-MS/MS peak responses (CYP metabolite peak area/internal standard peak area) for each test compound or positive control inhibitor were used and the response for each sample was expressed as a percentage of an uninhibited control (DMSO incubation).

CYP17A1 and CYP19A1 = experiment: Classification as Dual Inhibitor (inhibitor of both CYP17A1 and CYP19A1); settings: inhibitors of both CYP17A1 and CYP19A1
CYP17A1 [3] = molecular target: CYP17A1 (Homo sapiens (Human), UniProt P05093); experiment: CYP17A1 inhibition, CYP17A1 bactosomes, progesterone substrate, LC-MS/MS; assay type: biochemical; settings: Table 2
CYP17A1 (Homo sapiens (Human), UniProt P05093), sequence (P05093 whole entry, canonical isoform): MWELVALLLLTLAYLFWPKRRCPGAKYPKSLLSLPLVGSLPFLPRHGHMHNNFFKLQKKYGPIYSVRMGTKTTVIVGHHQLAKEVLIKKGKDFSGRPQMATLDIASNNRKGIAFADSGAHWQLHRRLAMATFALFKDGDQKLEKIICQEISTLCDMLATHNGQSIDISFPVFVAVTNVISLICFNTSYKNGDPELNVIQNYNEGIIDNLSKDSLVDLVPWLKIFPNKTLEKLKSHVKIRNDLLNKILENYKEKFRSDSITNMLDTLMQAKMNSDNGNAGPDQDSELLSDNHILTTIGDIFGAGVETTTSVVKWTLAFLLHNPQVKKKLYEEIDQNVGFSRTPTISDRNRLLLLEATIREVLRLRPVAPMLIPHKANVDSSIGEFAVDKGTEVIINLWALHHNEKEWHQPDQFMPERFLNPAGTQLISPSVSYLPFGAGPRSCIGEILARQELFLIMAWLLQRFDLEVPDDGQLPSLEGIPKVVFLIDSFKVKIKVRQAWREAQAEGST
Procedure: CYP17A1 inhibition was measured using 20 pmol/ml CYP17A1 bactosomes (Cypex, Dundee, UK) and 0.1 μM progesterone as a substrate and 1 mM NADPH in 50 mM potassium phosphate buffer pH 7.4 containing 5 mM magnesium chloride. Inhibitors were dissolved in DMSO and serially diluted in seven ½ log steps, final concentrations ranging from 50 μA to 50 nM. Reaction volume was 100 μl and final DMSO concentration was 1% (v/v). Reactions were started by the addition of NADPH and incubated at 37° C. for 20 minutes with shaking at 1800 rpm on a Bioshake IQ (Q-Instruments, Jena, Germany). Reactions were terminated by the addition of 200 μl methanol containing 1 μM tolbutamide as an internal standard.

[4] = tested on: CYP1A2, CYP2C9, CYP2C19, CYP2D6, and CYP3A4; experiment: Summary of inhibition of metabolic CYP450 isoforms (5 CYP panel); assay type: in vitro ADME, human; settings: Table 2

CYP19A1, sequence (P11511 whole entry): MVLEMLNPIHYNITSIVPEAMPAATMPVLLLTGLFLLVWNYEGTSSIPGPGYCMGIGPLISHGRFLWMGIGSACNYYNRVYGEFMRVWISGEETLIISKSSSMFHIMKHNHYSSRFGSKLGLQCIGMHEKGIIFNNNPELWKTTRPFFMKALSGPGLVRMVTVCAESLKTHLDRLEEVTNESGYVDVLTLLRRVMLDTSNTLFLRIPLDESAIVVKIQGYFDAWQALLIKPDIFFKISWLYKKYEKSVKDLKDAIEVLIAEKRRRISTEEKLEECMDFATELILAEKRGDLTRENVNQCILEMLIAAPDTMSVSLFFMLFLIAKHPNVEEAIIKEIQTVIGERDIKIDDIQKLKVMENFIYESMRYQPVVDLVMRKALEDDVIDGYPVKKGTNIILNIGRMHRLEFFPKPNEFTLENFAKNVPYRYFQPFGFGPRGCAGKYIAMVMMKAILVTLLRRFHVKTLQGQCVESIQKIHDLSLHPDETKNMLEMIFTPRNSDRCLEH

## CC(=O)Nc1cccc(-c2ccc(C(C)(O)c3c[nH]cn3)cc2)c1 (racemic) [32 [12]]
CYP17A1 [1]
  pIC50: 7.420
  IC50: 38 nM

## CC(C)=C(c1ccncc1)c1ccc(-c2ccc(O)c(O)c2)cc1 [16 [2]]
CYP17A1 [1]
  pIC50: 7.430
  IC50: 37 nM

## COC(C)C(=O)Nc1cccc(NC(C(N)=O)c2ccccc2)c1 (centres unmarked) [Compound 5, N-(3-{[carbamoyl(phenyl)methyl]amino}phenyl)-2-methoxypropanamide]
Solubility in DMSO
  Soluble in DMSO: Yes
[2]
  safety profile: excellent safety profiles

## CC(c1ccc(-c2ccsc2)cc1)n1ccnc1 (racemic) [12 [9]]
CYP17A1 [1]
  pIC50: 6.050
  IC50: 876 nM

## Cl.Fc1ccc(-c2ccc3c(c2)CCC3c2cccnc2)cc1 (centres unmarked) [15 [13]]
CYP17A1 [1]
  pIC50: 4.700
  IC50: 20000 nM

## CC(=O)Nc1cccc(-c2ccc(C(O)(c3c[nH]cn3)C3CC3)cc2)c1 (racemic) [34 [12]]
CYP17A1 [1]
  pIC50: 7.350
  IC50: 45 nM

## O=C1COc2cc(NCc3cccc(C(=O)Nc4cccnc4)c3)ccc2N1 [Compound 10, 3-{[(3-oxo-3,4-dihydro-2H-1,4-benzoxazin-7-yl)amino]methyl}-N-(pyridin-3-yl)benzamide]
CYP19A1
  IC50 values against CYP19A1, potency level in words: sub-micromolar inhibitory potency levels
Solubility in DMSO
  Soluble in DMSO: Yes
[2]
  safety profile: excellent safety profiles
CYP17A1 and CYP19A1
  Dual Inhibitor classification: Dual Inhibitors
CYP17A1 [3]
  inhibitory potency of CYP17A1, level in words: micromolar levels

## CC(C)=C(c1ccncc1)c1ccc(-c2ccc(N)c(N)c2)cc1 [22 [2]]
CYP17A1 [1]
  pIC50: 7.120
  IC50: 75 nM

## CC(C)=C(c1ccncc1)c1ccc(-c2cccc(O)c2)cc1 [13 [2]]
CYP17A1 [1]
  pIC50: 7.250
  IC50: 56 nM

## CNC(=O)c1cccc(-c2ccc(C(O)(c3c[nH]cn3)C(C)C)cc2)c1 (centres unmarked) [22 [12]]
CYP17A1 [1]
  pIC50: 7.360
  IC50: 44 nM

## CC(C)C(O)(c1cccc(-c2ccc(F)cc2)c1)c1c[nH]cn1 (racemic) [13 [12]]
CYP17A1 [1]
  pIC50: 7.720
  IC50: 19 nM

## CC(C)C(O)(c1cccc(-c2ccc(Cl)cc2)c1)c1c[nH]cn1 (centres unmarked) [14 [12]]
CYP17A1 [1]
  pIC50: 7.310
  IC50: 49 nM

## O=C1COc2cc(NCc3cccc(NC(=O)c4ccccc4Cl)c3)c(Cl)cc2N1 [Compound 7, 2-chloro-N-(3-{[(6-chloro-3-oxo-3,4-dihydro-2H-1,4-benzoxazin-7-yl)amino]methyl}phenyl)benzamide]
CYP19A1
  IC50 values against CYP19A1, potency level in words: sub-micromolar inhibitory potency levels
Solubility in DMSO
  Soluble in DMSO: Yes
[2]
  safety profile: excellent safety profiles
CYP17A1 and CYP19A1
  Dual Inhibitor classification: Dual Inhibitors
CYP17A1 [3]
  inhibitory potency of CYP17A1, level in words: micromolar levels

## CC(=O)Nc1cccc(-c2ccc(C(O)(c3c[nH]cn3)C(C)C)cc2)n1 (centres unmarked) [26 [12]]
CYP17A1 [1]
  pIC50: 7.440
  IC50: 36 nM

## O=C(Nc1ccccc1O)c1ccc(Oc2cccc(C(=O)Nc3ccccc3O)c2)cc1 [Compound 9, N-(2-hydroxyphenyl)-4-{3-[(2-hydroxyphenyl)carbamoyl]phenoxyl}benzamide]
Solubility in DMSO
  Soluble in DMSO: Yes
[2]
  safety profile: excellent safety profiles
CYP17A1 [3]
  inhibitory potency of CYP17A1, level in words: micromolar levels

## COc1ccc(-c2ccc(C(O)(c3c[nH]cn3)C(C)C)cc2)cc1 (racemic) [8 [12]]
CYP17A1 [1]
  pIC50: 7.270
  IC50: 54 nM

## Oc1ccc(-c2ccc(Cc3ccncc3)cc2)cc1F [5ax [7]]
CYP17A1 [1]
  pIC50: 6.770
  IC50: 170 nM

## CC(=O)Nc1cccc(-c2ccc(C(O)(c3c[nH]cn3)C(C)C)cc2)c1 (centres unmarked) [17 [12]]
CYP17A1 [1]
  pIC50: 7.620
  IC50: 24 nM

## COc1ccc(-c2ccc3c(c2)CCCC3(O)c2ccncc2)cc1F (racemic) [16 [9]]
CYP17A1 [1]
  pIC50: 5.480
  IC50: 3340 nM

## Oc1ccc(-c2ccc(Cc3ccncc3)cc2)cc1O [9 [9]]
CYP17A1 [1]
  pIC50: 7.280
  IC50: 52 nM

## O=C(CSc1nnc(-c2c[nH]c3ccccc23)n1Cc1ccco1)NCc1ccccc1Cl [Compound 2, N-[(2-chlorophenyl)methyl]-2-({4-[(furan-2-yl)methyl]-5-(1H-indol-3-yl)-4H-1,2,4-triazol-3-yl}sulfanyl)acetamide]
Solubility in DMSO
  Soluble in DMSO: Yes
[2]
  safety profile: reasonably good safety profiles
[4]
  inhibition of various CYP450 isoforms (drug-drug interaction): inhibit various CYP450 isoforms
CYP17A1 [3]
  inhibitory potency of CYP17A1, level in words: micromolar levels

## CNC(=O)Nc1cccc(-c2ccc(C(O)(c3c[nH]cn3)C(C)C)cc2)c1 (centres unmarked) [24 [12]]
CYP17A1 [1]
  pIC50: 7.680
  IC50: 21 nM

## CC(C)C(O)(c1ccc(-c2ccc(Cl)cc2)cc1)c1c[nH]cn1 (racemic) [16 [12]]
CYP17A1 [1]
  pIC50: 7.550
  IC50: 28 nM

## O=C1COc2cc(NCc3cccc(C(=O)Nc4ccccc4O)c3)ccc2N1 [Compound 11, N-(2-hydroxyphenyl)-3-{[(3-oxo-3,4-dihydro-2H-1,4-benzoxazin-7-yl)amino]methyl}benzamide]
CYP19A1
  IC50 values against CYP19A1, potency level in words: sub-micromolar inhibitory potency levels
Solubility in DMSO
  Soluble in DMSO: Yes
[2]
  safety profile: reasonably good safety profiles
[4]
  inhibition of various CYP450 isoforms (drug-drug interaction): inhibit various CYP450 isoforms

## CNC(=O)c1ccc2cc([C@@]3(O)CCn4cncc43)ccc2c1 [TAK700]
CYP17A1 [1]
  pIC50: 7.550
  IC50: 28 nM

## COc1ccc(-c2ccc(Cc3ccncc3)cc2)cc1OC [9a [9]]
CYP17A1 [1]
  pIC50: 7.280
  IC50: 52 nM

## CC(C)C(O)(c1ccc(-c2ccc(F)cc2)cc1)c1c[nH]cn1 (racemic) [15 [12]]
CYP17A1 [1]
  pIC50: 7.570
  IC50: 27 nM

## O=C(NC1CC1)c1ccc2cc(C3(O)CCn4cncc43)ccc2c1 (racemic) [5bx [7]]
CYP17A1 [1]
  pIC50: 6.600
  IC50: 250 nM

## CC(C)C(O)(c1ccc(-c2ccccc2)cc1)c1c[nH]cn1 (racemic) [7 [12]]
CYP17A1 [1]
  pIC50: 7.480
  IC50: 33 nM

## CC(c1ccc(-c2ccc(F)cc2)cc1)n1ccnc1 (centres unmarked) [4 [9], 4-fluoro-4-[1-(1H-imidazolyl)ethyl]biphenyl]
CYP17A1 [1]
  pIC50: 6.610
  IC50: 248 nM

## COc1ccc2cc(-c3ccc(Cc4ccncc4)cc3)ccc2c1 [13 [9]]
CYP17A1 [1]
  pIC50: 5.750
  IC50: 1790 nM

## c1ccc(-c2ccc3c(c2)CCC3n2ccnc2)cc1 (racemic) [5ay [7]]
CYP17A1 [1]
  pIC50: 6.620
  IC50: 240 nM

## CCNC(=O)c1ccc2cc(C3(O)CCn4cncc43)ccc2c1 (racemic) [25 [2]]
CYP17A1 [1]
  pIC50: 6.730
  IC50: 186 nM

## CNC(=O)c1ccc2cc(C(O)(c3cnc[nH]3)C(C)C)ccc2c1 (centres unmarked) [1 [11]]
CYP17A1 [1]
  pIC50: 7.800
  IC50: 16 nM

## CNC(=O)c1ccc2cc(C3CCn4cncc43)ccc2c1 (racemic) [3d [11]]
CYP17A1 [1]
  pIC50: 7.890
  IC50: 13 nM

## CCc1ccc(NC(=O)c2cc(C(=O)c3cc(OC)ccc3O)coc2=N)cc1 [Compound 1, N-(4-ethylphenyl)-5-(2-hydroxy-5-methoxybenzoyl)-2-imino-2H-pyran-3-carboxamide]
Solubility in DMSO
  Soluble in DMSO: Yes
[2]
  safety profile: reasonably good safety profiles
[4]
  inhibition of various CYP450 isoforms (drug-drug interaction): inhibit various CYP450 isoforms
CYP17A1 [3]
  inhibitory potency of CYP17A1, level in words: micromolar levels

## Brc1ccc(Cc2ccncc2)cc1 [3g [11]]
CYP17A1 [1]
  pIC50: 6.400
  IC50: 400 nM

## Oc1cccc(-c2ccc(Cc3ccncc3)cc2)c1 [3i [11]]
CYP17A1 [1]
  pIC50: 7.060
  IC50: 88 nM

## Oc1ccc(-c2ccc(Cc3ccncc3)cc2)cc1 [30 [10]]
CYP17A1 [1]
  pIC50: 6.630
  IC50: 236 nM

## NC(=O)c1ccc2cc(C3(O)CCn4cncc43)ccc2c1 (racemic) [3b [11]]
CYP17A1 [1]
  pIC50: 7.540
  IC50: 29 nM

## CCC(O)(c1ccc(-c2cccc(NC(C)=O)c2)cc1)c1c[nH]cn1 (racemic) [33 [12]]
CYP17A1 [1]
  pIC50: 7.400
  IC50: 40 nM

## CC(C)=C(c1ccncc1)c1ccc(-c2ccc(O)c(F)c2)cc1 [15 [2]]
CYP17A1 [1]
  pIC50: 7.120
  IC50: 75 nM

## O=C1COc2cc(NCc3cccc(C(=O)Nc4cccnc4)c3)c(Cl)cc2N1 [Compound 13, 3-{[(6-chloro-3-oxo-3,4-dihydro-2H-1,4-benzoxazin-7-yl)amino]methyl}-N-(pyridin-3-yl)benzamide]
CYP19A1
  IC50 values against CYP19A1, potency level in words: sub-micromolar inhibitory potency levels
Solubility in DMSO
  Soluble in DMSO: Yes
[2]
  safety profile: reasonably good safety profiles
CYP17A1 and CYP19A1
  Dual Inhibitor classification: Dual Inhibitors
[4]
  inhibition of various CYP450 isoforms (drug-drug interaction): inhibit various CYP450 isoforms

## Br.Oc1ccc(-c2ccc3c(c2)CCCC3c2ccncc2)cc1F (centres unmarked) [20 [13]]
CYP17A1 [1]
  pIC50: 7.190
  IC50: 64 nM

## O=C1COc2cc(NCc3cccc(C(=O)Nc4cccnc4)c3)c(O)cc2N1 [Compound 8, 3-{[(6-hydroxy-3-oxo-3,4-dihydro-2H-1,4-benzoxazin-7-yl)amino]methyl}-N-(pyridin-3-yl)benzamide]
CYP19A1
  IC50 values against CYP19A1, potency level in words: sub-micromolar inhibitory potency levels
Solubility in DMSO
  Soluble in DMSO: Yes
[2]
  safety profile: excellent safety profiles

From patent US11548860B2, “Pharmacophores, compounds and methods having application in the treatment of cancer through inhibition of CYP17A1 and CYP19A1” (MANGOSUTHU UNIVERSITY OF TECHNOLOGY, priority 2015, dated 2023)
